Measured values taken from patent US8551984B2, “Aminopyrimidines as SYK inhibitors” (Merck Sharp & Dohme Corp., priority 2009, dated 2013).

Molecular target: recombinant human SYK (GST-hSYK fusion protein) (Homo sapiens, UniProt P43405)
Assay: biochemical
From the text: Homogeneous Time-Resolved Fluorescence (HTRF) Assay for the Recombinant Human SYK Enzyme:

Structure (SMILES) | IC50 (rhSYK Activity, Table 113A) [µM] | also measured
CC(=O)N1CCC(Oc2ccnc(Nc3cc(N)cc(-c4cnc(C5(O)CCC5)s4)c3)n2)CC1 [Example 109-6] |  | IC50 (rhSYK Activity, Table 109): < 0.1 µM
O=C(Nc1cc(Nc2nccc(OC3CCOCC3)n2)cc(-c2cnc(C3(O)CCC3)s2)c1)C(F)(F)F [Example 109-7] |  | IC50 (rhSYK Activity, Table 109): 0.1 to 1 µM
CC(=O)Nc1cc(Nc2nccc(OC3CCOCC3)n2)cc(-c2cnc(C3(O)CCC3)s2)c1 [Example 109-8] |  | IC50 (rhSYK Activity, Table 109): < 0.1 µM
Nc1cc(Nc2nccc(OC3CCOCC3)n2)cc(-c2cnc(C3(O)CCC3)s2)c1 [Example 109-9] |  | IC50 (rhSYK Activity, Table 109): < 0.1 µM
NC(=O)Nc1cc(Nc2nccc(OC3CCNCC3)n2)cc(-c2cnc(C3(O)CCC3)s2)c1 [Example 109-11] |  | IC50 (rhSYK Activity, Table 109): < 0.1 µM
Nc1cc(Nc2nccc(OC3CCNCC3)n2)cc(-c2cnc(C3(O)CCC3)s2)c1 [Example 109-12] |  | IC50 (rhSYK Activity, Table 109): < 0.1 µM
Nc1cc(Nc2nccc(OC3CNC3)n2)cc(-c2cnc(C3(O)CCC3)s2)c1 [Example 109-14] |  | IC50 (rhSYK Activity, Table 109): < 0.1 µM
Cc1cc(Nc2nccc(C(F)(F)F)n2)cc(-c2cnc([C@@]3(O)CC[C@H](C(=O)O)C(C)(C)C3)s2)c1Br [Example 111, (1S,4R)-4-[5-(2-bromo-3-methyl-5-{[4-(trifluoromethyl)pyrimidin-2-yl]amino}phenyl)-1,3-thiazol-2-yl]-4-hydroxy-2,2-dimethylcyclohexanecarboxylic acid] |  | IC50 (rhSYK Activity (IC50), recombinant human GST-SYK 5 pM, ATP 25 μM, biotinylated substrate peptide 250 nM, HTRF, 10-dose titration): < 0.1 µM
COCCOc1ccnc(Nc2cc(C)cc(-c3cnc(C4(O)CCC(C(=O)O)CC4)s3)c2)n1 (stereo not drawn) [Example 113A-1] | < 0.1 | 
COCCCOc1ccnc(Nc2cc(C)cc(-c3cnc([C@]4(O)CC[C@@H](C(=O)O)CC4)s3)c2)n1 [Example 113A-2] | < 0.1 | 
O=C(O)[C@H]1CC[C@](O)(c2ncc(-c3cc(Cl)cc(Nc4nccc(C(F)(F)F)n4)c3)s2)CC1 [Example 113A-3] | < 0.1 | 
Cc1cc(Nc2nccc(C)n2)cc(-c2cnc(C3(O)CCC(C(=O)O)C(C)C3)s2)c1 (stereo not drawn) [Example 113A-4] | < 0.1 | 
COC(=O)C1CCC(O)(c2ncc(-c3cc(C)cc(Nc4nccc(C)n4)c3)s2)CC1C (stereo not drawn) [Example 113A-8] | < 0.1 | 
COC(=O)C1CCC(O)(c2ncc(-c3cc(C)cc(Nc4nccc(C)n4)c3)s2)CC1C (stereo not drawn) [Example 113A-9] | 0.1 to 1 | 
COC(=O)C1CCC(O)(c2ncc(-c3cc(C)cc(Nc4nccc(C)n4)c3)s2)CC1C (stereo not drawn) [Example 113A-10] | < 0.1 | 
COC(=O)C1CCC(O)(c2ncc(-c3cc(C)cc(Nc4nccc(C)n4)c3)s2)CC1C (stereo not drawn) [Example 113A-11] | < 0.1 | 
COC(=O)C1CCC(O)(c2ncc(-c3cc(C)cc(Nc4nccc(C)n4)c3)s2)CC1C (stereo not drawn) [Example 113A-12] | 0.1 to 1 | 
COC(=O)C1CCC(O)(c2ncc(-c3cc(C)cc(Nc4nccc(C)n4)c3)s2)CC1C (stereo not drawn) [Example 113A-13] | 0.1 to 1 | 
CCc1ccnc(Nc2cc(C)cc(-c3cnc(C4(O)CCC(C(=O)O)C(C)C4)s3)c2)n1 (stereo not drawn) [Example 113A-14] | < 0.1 | 
COc1ccnc(Nc2cc(C)cc(-c3cnc([C@@]4(O)CC[C@H](C(=O)O)[C@H](C)C4)s3)c2)n1 [Example 113A-16] | < 0.1 | 
Cc1cc(Nc2ncc(F)c(C)n2)cc(-c2cnc([C@]3(O)CC[C@@H](C(=O)O)[C@@H](C)C3)s2)c1 [Example 113A-19] | < 0.1 | 
Cc1cc(Nc2nccc(C3CC3)n2)cc(-c2cnc([C@]3(O)CC[C@@H](C(=O)O)[C@@H](C)C3)s2)c1 [Example 113A-20] | < 0.1 | 
Cc1cc(Nc2nccc(C3CC3)n2)cc(-c2cnc([C@@]3(O)CC[C@H](C(=O)O)[C@H](C)C3)s2)c1 [Example 113A-21] | < 0.1 | 
Cc1cc(Nc2nccc(C3CC3)n2)cc(-c2cnc(C3(O)CCC(C(=O)O)C(C)C3)s2)c1 (stereo not drawn) [Example 113A-22] | < 0.1 | 
Cc1ccnc(Nc2cc(-c3cnc(C4(O)CCC(C(=O)O)C(C)C4)s3)cc(C3CC3)c2)n1 (stereo not drawn) [Example 113A-23] | < 0.1 | 
Cc1cc(Nc2nccc(C(C)C)n2)cc(-c2cnc([C@@]3(O)CC[C@H](C(=O)O)[C@H](C)C3)s2)c1 [Example 113A-25] | < 0.1 | 
Cc1cc(Nc2nccc(C(C)C)n2)cc(-c2cnc([C@]3(O)CC[C@@H](C(=O)O)[C@@H](C)C3)s2)c1 [Example 113A-26] | < 0.1 | 
